Experimental data from patent US20030220524A1, “Sulfur containing compounds” (priority 2000, published 2003).

Assays:
Aspergillus flavus = test: Antifungal paper disk test, diameter of clear zone; assay type: cell-based; conditions: for zone of inhibition at 100 µg/disc: read-out: Diameter (mm) of clear Zone A. flavus
Procedure: (§1) Sulfur compounds were tested for antifungal activity against pure cultures of Aspergillus niger and Aspergillus flavus supplied by Ward's Natural Science Ltd (St. Catharines, Ontario, Canada). They were maintained on Sabouraud Dextrose Agar.
(§2) For the test, 6 agar plugs (5 mm diameter) were cut from a 5-8 day old colony and homogenized in distilled, sterilized water (2 ml). A portion of this suspension (0.5 ml) was transferred aseptically to a Petri plate with Sabouraud Dextrose Agar (15 ml) and spread evenly over the entire surface. […] Each test compound was applied to the disks as a solution (50 mg compound/10 ml acetone). Control disks were treated with neat acetone (20 μl). Test plates with fungal homogenates and disks were incubated at 18-20° C. for 2 days. For each test four replicate plates were used. The diameter of the clear zone surrounding the disk was taken as the indicator of antifungal activity.

Aspergillus niger = test: Antifungal paper disk test, diameter of clear zone; assay type: cell-based; conditions: for zone of inhibition at 100 µg/disc: read-out: Diameter (mm) of clear Zone A. niger
Procedure: as §1, §2

[1] = Aspergillus flavus, 100 μg/disk, acetone
[2] = Aspergillus niger, 100 μg/disk, acetone
[3] = 0.25 μg/disk, Appl'n Solvent Acetone
[4] = Aspergillus flavus, 25 μg/disk, acetone
[5] = Aspergillus niger, 25 μg/disk, acetone

CSSCCOC(C)=O [CH3SSCH2CH2OC(O)CH3, 3,4-dithiapentyl acetate]
zone of inhibition at 100 µg/disc (Aspergillus flavus; [1]): 0 mm
zone of inhibition at 100 µg/disc (Aspergillus niger; [2]): 0 mm

1-p-toluenesulfonyl-4-propionoxy-2,3-dithiabutane [C2H5OC(O)CH2SSCH2SO2(C6H4)—p-CH3]
Diameter (mm) of clear Zone A. flavus (Aspergillus flavus; [3]): 5.2 mm
Diameter (mm) of clear Zone A. niger (Aspergillus niger; [3]): 8.5 mm

Cc1ccc(S(=O)(=O)Sc2ccc([N+](=O)[O-])cc2)cc1 [p-CH3(C6H4)SO2S(C6H4)NO2—p, p-Nitrophenyl p-Toluenethiosulfonate]
Diameter (mm) of clear Zone A. flavus (Aspergillus flavus; 25 μg/disk, acetone): 2.0 mm
Diameter (mm) of clear Zone A. niger (Aspergillus niger; 25 μg/disk, acetone): 3.0 mm

CCS(=O)(=O)SC [CH3CH2SO2SCH3, Methyl Ethanethiosulfonate]
Diameter (mm) of clear Zone A. flavus (Aspergillus flavus; 50 μg/disk, acetone): 1.3 mm
Diameter (mm) of clear Zone A. niger (Aspergillus niger; 50 μg/disk, acetone): 2.0 mm

CSSCS(C)(=O)=O [CH3SO2CH2SSCH3, α-methylsulfonyl dimethyl disulphide]
Diameter (mm) of clear Zone A. flavus (Aspergillus flavus; 25 μg/disk, acetone): 3.8 mm
Diameter (mm) of clear Zone A. niger (Aspergillus niger; 25 μg/disk, acetone): 2.7 mm

CSSc1cccc([N+](=O)[O-])c1 [m-O2N(C6H4)SSCH3, methyl m-nitrophenyl disulphide]
zone of inhibition at 10 µg/disc (Aspergillus flavus; Aspergillus flavus, 10 μg/disk, acetone): 1.8 mm
zone of inhibition at 10 µg/disc (Aspergillus niger; Aspergillus niger, 10 μg/disk, acetone): 1.7 mm

CS(=O)(=O)Sc1ccc([N+](=O)[O-])cc1 [p-CH3SO2S(C6H4)NO2, p-Nitrophenyl Methanethiosulfonate]
Diameter (mm) of clear Zone A. flavus (Aspergillus flavus; 25 μg/disk, acetone): 1.2 mm
Diameter (mm) of clear Zone A. niger (Aspergillus niger; 25 μg/disk, acetone): 1.9 mm

CSSCOC(=O)c1ccccc1 [CH3SSCH2OC(O)Ph, 2,3-dithiabutyl benzoate]
zone of inhibition at 25 µg/disc (Aspergillus flavus; [4]): 8.4 mm
zone of inhibition at 25 µg/disc (Aspergillus niger; [5]): 6.1 mm

CCC(=O)OCSSCC(=O)OC [CH3OC(O)CH2SSCH2OC(O)C2H5, methyl 3,4-dithia-5-propionoxypentanoate]
zone of inhibition at 0.25 µg/disc (Aspergillus flavus; Aspergillus flavus, 0.25 μg/disk, Appl'n Solvent Acetone): 2.3 mm
zone of inhibition at 0.25 µg/disc (Aspergillus flavus; Aspergillus flavus, 0.25 μg/disk, Appl'n Solvent DMSO): 7.9 mm
zone of inhibition at 0.25 µg/disc (Aspergillus niger; Aspergillus niger, 0.25 μg/disk, Appl'n Solvent Acetone): 3 mm
zone of inhibition at 0.25 µg/disc (Aspergillus niger; Aspergillus niger, 0.25 μg/disk, Appl'n Solvent DMSO): 11.7 mm

CS(=O)(=O)c1ccccc1SSc1ccccc1S(C)(=O)=O [[o-CH3SO2(C6H4)S]2, o-methylsulfonylphenyl disulphide]
zone of inhibition at 25 µg/disc (Aspergillus flavus; [4]): 3 mm
zone of inhibition at 25 µg/disc (Aspergillus niger; [5]): 3.3 mm

O=S(=O)(Sc1ccccc1)c1ccccc1 [(C6H5)SO2S(C6H5)]
Diameter (mm) of clear Zone A. flavus (Aspergillus flavus; 25 μg/disk, acetone): 3.8 mm
Diameter (mm) of clear Zone A. niger (Aspergillus niger; 25 μg/disk, acetone): 3.9 mm

CSSCS(=O)(=O)c1ccccc1 [C6H5SO2CH2SSCH3, α-phenylsulfonyl dimethyl disulphide]
Diameter (mm) of clear Zone A. flavus (Aspergillus flavus; 25 μg/disk, acetone): 4.2 mm
Diameter (mm) of clear Zone A. niger (Aspergillus niger; 25 μg/disk, acetone): 5.5 mm

CSCS(C)(=O)=O [CH3SO2CH2SCH3, 2,4-dithiapentane 2,2-dioxide]
zone of inhibition at 100 µg/disc (Aspergillus flavus; [1]): 0 mm
zone of inhibition at 100 µg/disc (Aspergillus niger; [2]): 0 mm

COC(=O)CSS(=O)(=O)c1ccc(C)cc1 [p-CH3(C6H4)SO2SCH2CO2CH3, Carbomethoxymethyl p-Toluenethiosulfonate]
Diameter (mm) of clear Zone A. flavus (Aspergillus flavus; 50 μg/disk, acetone): 1.7 mm
Diameter (mm) of clear Zone A. niger (Aspergillus niger; 50 μg/disk, acetone): 2.9 mm

CS(=O)(=O)Oc1ccc(S(C)(=O)=O)cc1 [p-CH3SO2(C6H4)OSO2CH3, p-methylsulfonylphenyl methanesulfonate]
zone of inhibition at 100 µg/disc (Aspergillus flavus; [1]): 0 mm
zone of inhibition at 100 µg/disc (Aspergillus niger; [2]): 0 mm

Cc1ccc(S(=O)(=O)Sc2ccccc2)cc1 [p-CH3(C6H4)SO2S(C6H5)]
Diameter (mm) of clear Zone A. flavus (Aspergillus flavus; 25 μg/disk, acetone): 3.3 mm
Diameter (mm) of clear Zone A. niger (Aspergillus niger; 25 μg/disk, acetone): 4.3 mm

CSS(=O)(=O)c1ccc(C)cc1 [p-CH3(C6H4)SO2SCH3]
Diameter (mm) of clear Zone A. flavus (Aspergillus flavus; 25 μg/disk, acetone): 3.6 mm
Diameter (mm) of clear Zone A. niger (Aspergillus niger; 25 μg/disk, acetone): 1.4 mm

o-Carbomethoxyphenyl Methanethiosulfonate [o-CH3SO2S(C6H4)CO2CH3]
Diameter (mm) of clear Zone A. flavus (Aspergillus flavus; 100 μg/disk, acetone): 0 mm
Diameter (mm) of clear Zone A. niger (Aspergillus niger; 100 μg/disk, acetone): 0 mm

CSCSSCSC [(CH3SCH2S)2, reference compound]
Diameter (mm) of clear Zone A. flavus (Aspergillus flavus; 100 μg/disk, acetone): 2.3 mm
Diameter (mm) of clear Zone A. niger (Aspergillus niger; 100 μg/disk, acetone): 2.5 mm

Cc1ccc(S(=O)(=O)CS)cc1 [p-CH3(C6H4)SO2CH2SH, α-p-toluenesulfonyl methyl mercaptan]
Diameter (mm) of clear Zone A. flavus (Aspergillus flavus; 100 μg/disk, acetone): 0 mm
Diameter (mm) of clear Zone A. niger (Aspergillus niger; 100 μg/disk, acetone): 0 mm

CCSSCS(C)(=O)=O [CH3SO2CH2SSCH2CH3, 2,4,5-trithiaheptane 2,2,-dioxide]
Diameter (mm) of clear Zone A. flavus (Aspergillus flavus; 25 μg/disk, acetone): 3.3 mm
Diameter (mm) of clear Zone A. niger (Aspergillus niger; 25 μg/disk, acetone): 4.8 mm
